Reference: paper PMC4980838 (European journal of medicinal chemistry, 2010)

Experiments:
[1] = tested on: human HT-29 colon tumor cell line; assay: Tumor cell growth inhibition, HT-29; assay type: cell-based; conditions: HT-29, 72 h, read-out: Growth inhibition IC50
[2] = target: recombinant human PDE5 enzyme (Homo sapiens, UniProt O76074); assay: Phosphodiesterase assay; assay type: biochemical

COC(=O)[C@@H]1Cc2c([nH]c3ccccc23)[C@@H](c2ccccc2Br)N1C(=O)CCl [Compound 6d, Methyl (1R,3S)-1-(2-bromophenyl)-2-(2-chloroacetyl)-2,3,4,9-tetrahydro-1H-β-carboline-3-carboxylate]
IC50 [1]: 1600 nM
PDE5 inhibitory activity (in words) [2]: did not show PDE5 inhibitory activity
